In patent US7625870B2, “Peptide substance restoring respiratory organs function” (“Access Bioscience” CJSC, priority 2004, dated 2009):
Marks after values point to notes of the source that are not given here. Peptide text beside a SMILES is read from it.

Experiments:
[1] = test system: acute bacterial lung injury (Staphilococcus aureus 209) in rats; experiment: Acute inflammation model, bacterial lung injury in rats (BALF cytogram, AM phagocytic activity); format: in vivo, rat
Experimental: The study was conducted on 120 white mongrel rats with average body weight 200-230 g. The animals were divided at random into 3 groups: 10 (intact), 60 (control) and 50 (experimental). In order to infect the animals there was used twenty-four-hours' culture of Staphilococcus aureus 209, which is tropic to rodents pulmonic tissue. There was also used a cellular suspension 5×10^6 cl/ml with Freind adjuvant (25% of total volume). Before infecting the animals were exposed to a supercooling at temperature −20° C. for 1 hour. Then the animals were infected using light thiopental narcosis (8 mg/100g of body weight) in sterile box. Injections of tetrapeptide were started in 2 days after infecting and were conducted for 7 days (daily, intraperitoneally in dose of 0,2 μg/kg). Control animals were administered with 0.9% NaCl solution. The animals were excluded from the trial on the 1, 3, 6, 10, […] and 20th days by the method of cervical dislocation. In each period there was conducted BAFL testing in order to estimate its cellular content and AM phagocytic activity, superoxid-anion (SA) production and total free radical production by BAFL cells. On the 1 and the 6th days of the study there was conducted lung morphological examination.

[2] = test system: lung tissue explants of mature Wistar rats; experiment: Growth of lung organotypical culture explants; format: cell-based, rat; conditions: for SI, % compared to the control: 3 days of incubation
Experimental: Lung tissue explants of mature Wistar rats were cultivated in petri dishes with collagen bottom cover. The nutritious medium was composed of 35% Eagle's medium, 35% Hanx solution, 25% calf fetal serum and 5% of chicken embryonic extract with added glucose, insulin, gentamycin and glutamin. Ala-Glu-Asp-Leu (SEQ ID NO:1) tetrapeptide was added into the cultural medium in fixed concentrations, from 0,01 to 20,0 ng per ml of nutritious medium. The same amount of natural saline solution was added to the control explants. After 3 days of incubation at the temperature of 37° C. there was assessed an extension of explants' area using phase contrast microscope. Biological activity of the preparation was evaluated by the change of square index (SI) of the explants cultivated in the medium containing the peptide, compared to the control.

white mongrel male mice = experiment: Acute toxicity, single intramuscular injection; format: in vivo, mouse; conditions: dose exceeding the therapeutic one 5000 times
Source text: (§1) The general toxic effect of tetrapeptide was studied in compliance with “The manual of Experimental (Pre-Clinical) Study of New Pharmacological Substances” (2000): acute toxicity was studied in conditions of tetrapeptide single administration, subacute and chronic toxicity were investigated in conditions of long tetrapeptide administration.
Acute toxicity was investigated on 60 white mongrel male mice weighing 20-23 g. The animals were randomized to 6 equal groups. They were intramuscularly injected with the tetrapeptide once in the doses of 1 mg/kg, 2 mg/kg, 3 mg/kg, 4 mg/kg, 5 mg/kg in 0.25 ml of natural saline solution. The control animals received the same amount of natural saline solution (0.9%).

white mongrel male rats = experiment: Subacute toxicity, 90 days intramuscular; format: in vivo, rat; conditions: long term administration, doses 100-1000 times exceeding the therapeutic one
Source text: as §1
Subacute toxicity of the tetrapeptide was investigated on 60 white mongrel male rats weighing 150-250g. The animals of the experimental groups were exposed to intramuscular injection of the tetrapeptide in the doses of 1 μg/kg, 0,1 mg/kg, 1 mg/kg in 0,5 ml of natural saline solution, once a day for 90 days. The animals of the control group were administered with natural saline solution in the same amount. Before the onset of tetrapeptide administration in the 30th, 60th and 90th day the animals were exposed to an examination of the morphological composition and characteristics of the peripheral blood. On the completion of the experiment there were studied biochemical and coagulological blood indices.

[3] = day 3, 0,2 μg/kg intraperitoneally
[4] = day 6, 0,2 μg/kg intraperitoneally
[5] = day 10, 0,2 μg/kg intraperitoneally
[6] = day 15, 0,2 μg/kg intraperitoneally
[7] = day 20, 0,2 μg/kg intraperitoneally
[8] = in words, 0,2 μg/kg intraperitoneally

CC(C)C[C@H](NC(=O)[C@H](CC(=O)O)NC(=O)[C@H](CCC(=O)O)NC(=O)[C@H](C)N)C(=O)O [Tetrapeptide, L-alanyl-L-glutamyl-L-aspartyl-L-leucine] (H-AEDL-OH)
BAFL cytogram, Lymphocytes [1, 3]: 1.68 ± 0.16 ×10^6 cells/lungs
BAFL cytogram, Macrophages [1, 3]: 29.7 ± 2.8*+ ×10^6 cells/lungs
BAFL cytogram, Neutrophiles [1, 3]: 6.98 ± 1.48*+ ×10^6 cells/lungs
Phagocytic index (alveolar macrophages) [1, 3]: 52.4 ± 2.9*+
Phagocytic number (alveolar macrophages) [1, 3]: 5.83 ± 0.37*+
BAFL cytogram, Lymphocytes [1, 4]: 0.86 ± 0.23 ×10^6 cells/lungs
BAFL cytogram, Macrophages [1, 4]: 24.9 ± 1.2*+ ×10^6 cells/lungs
BAFL cytogram, Neutrophiles [1, 4]: 0.52 ± 0.18 ×10^6 cells/lungs
Phagocytic index (alveolar macrophages) [1, 4]: 41.5 ± 3.1+
Phagocytic number (alveolar macrophages) [1, 4]: 4.98 ± 0.28*+
BAFL cytogram, Lymphocytes [1, 5]: 0.59 ± 0.28 ×10^6 cells/lungs
BAFL cytogram, Macrophages [1, 5]: 19.2 ± 2.8*+ ×10^6 cells/lungs
BAFL cytogram, Neutrophiles [1, 5]: 0.31 ± 0.18 ×10^6 cells/lungs
Phagocytic index (alveolar macrophages) [1, 5]: 49.2 ± 2.8+
Phagocytic number (alveolar macrophages) [1, 5]: 2.98 ± 0.32+
BAFL cytogram, Lymphocytes [1, 6]: 0.79 ± 0.20 ×10^6 cells/lungs
BAFL cytogram, Macrophages [1, 6]: 16.3 ± 2.8 ×10^6 cells/lungs
BAFL cytogram, Neutrophiles [1, 6]: 0.21 ± 0.16 ×10^6 cells/lungs
Phagocytic index (alveolar macrophages) [1, 6]: 55.9 ± 4.2
Phagocytic number (alveolar macrophages) [1, 6]: 3.74 ± 0.25
BAFL cytogram, Lymphocytes [1, 7]: 0.56 ± 0.17 ×10^6 cells/lungs
BAFL cytogram, Macrophages [1, 7]: 14.6 ± 2.1 ×10^6 cells/lungs
BAFL cytogram, Neutrophiles [1, 7]: 0.25 ± 0.11 ×10^6 cells/lungs
Phagocytic index (alveolar macrophages) [1, 7]: 49.3 ± 3.6
Phagocytic number (alveolar macrophages) [1, 7]: 3.68 ± 0.31
basal and zymosan-stimulated production of SA (superoxid-anion) by AM [1, 8]: reliably increases
normalization of free radical production of BALF cells [1, 8]: more rapid normalization
processes of lung tissue reparation ([1]; in words, dose of 0,2 μg/kg of body weight): speeding-up
SI, % compared to the control ([2]; 0.01 ng/ml): 2%
SI, % compared to the control ([2]; 0.1 ng/ml): 14%
SI, % compared to the control ([2]; 0.5 ng/ml): 9%
SI, % compared to the control ([2]; 1.0 ng/ml): 22* %
SI, % compared to the control ([2]; 2.0 ng/ml): 53* %
SI, % compared to the control ([2]; 10.0 ng/ml): 25* %
SI, % compared to the control ([2]; 20.0 ng/ml): 9%
growth of organotypic lung culture explants ([2]; in words, concentrations from 1,0 to 10,0 ng/ml): reliably stimulates
acute toxicity, toxic reactions (white mongrel male mice): does not cause any toxic reactions
subacute toxicity, side-effects (white mongrel male rats): does not reveal any side-effects
